Molecular target: β-glucosidase from almonds (β-Glcase1)
Assay: Commercial glycosidase inhibition: β-glucosidase from almonds (β-Glcase1)
Type: biochemical
Conditions: mean ± SD, three determinations; competitive; n.i. = no inhibition detected at 1 mM
From the text: We first evaluated the inhibitory properties of the new nonreducing mono- and bicyclic sp^2-iminosugars 4–15 against a panel of commercial glycosidases that included the α-glucosidases maltase (yeast maltase; α-Glcase1) and isomaltase (α-Glcase2) from Saccharomyces cerevisiae and amyloglucosidase (α-Glcase3) from Aspergillus niger, the β-glucosidases from almonds (β-Glcase1) and bovine liver (β-Glcase2), the α-galactosidase from green coffee beans (α-Galase), the β-galactosidase from Escherichia coli (β-Galase), and the α-mannosidase from Jack bean (α-Manase).
Inhibition constant (Ki) values were determined by spectrophotometrically measuring the residual hydrolytic activities of the glycosidases against the respective o- (for β-galactosidase from E. coli) or p-nitrophenyl α- or β-D-glycopyranoside (for other glycosidases) in the presence of the iminosugars. Each assay was performed in phosphate buffer or phosphate-citrate buffer (for α- or β-mannosidase and amyloglucosidase) at the optimal pH for the enzymes. The reactions were initiated by addition of the enzyme to a solution of the substrate in the absence or presence of various inhibitor concentrations. The mixture was incubated for 10–30 min at 37 °C or 55 °C (for amyloglucosidase) and the reaction was quenched by addition of 1 M Na2CO3. Reaction times were appropriate to obtain 10–20% conversion of the substrate in order to achieve linear rates. The absorbance of the resulting mixture was determined at 405 nm. Approximate value of Ki was determined from the slope of Dixon plots using a fixed concentration of substrate (around the Km value for the different glycosidases) and various concentrations of inhibitor. Full Ki determinations and enzyme inhibition mode were determined from the slope of Lineweaver–Burk plots and double reciprocal analysis.

SMILES: CCCCCCCCN=C1SCC2C(O)C(O)C(O)CN12 (stereo not drawn) [Compound 4, 1-Deoxy-6-thio-5-N,6-S-(N′-octyliminomethylidene)nojirimycin]
- Ki: 45 nM

Source: PMC6017062, “Probing the Inhibitor versus Chaperone Properties of sp^2-Iminosugars towards Human β-Glucocerebrosidase: A Picomolar Chaperone for Gaucher Disease” (Molecules : A Journal of Synthetic Chemistry and Natural …, 2018)
